The term IC50 denotes the point on the concentration scale where inhibition reaches its midpoint.

This note sets out measurements from ChEMBL document CHEMBL1143312, “Design, synthesis, and evaluation in vitro of quinoline-8-carboxamides, a new class of poly(adenosine-diphosphate-ribose)polymerase-1 (PARP-1) inhibitor” (J Med Chem, 2009).

For the test, the target named is Poly [ADP-ribose] polymerase 1 (Homo sapiens, UniProt P09874). The test is described as follows: Inhibition of human recombinant PARP1 by Trevigen colorimetric assay.
Chain of Poly [ADP-ribose] polymerase 1 (P09874 whole entry): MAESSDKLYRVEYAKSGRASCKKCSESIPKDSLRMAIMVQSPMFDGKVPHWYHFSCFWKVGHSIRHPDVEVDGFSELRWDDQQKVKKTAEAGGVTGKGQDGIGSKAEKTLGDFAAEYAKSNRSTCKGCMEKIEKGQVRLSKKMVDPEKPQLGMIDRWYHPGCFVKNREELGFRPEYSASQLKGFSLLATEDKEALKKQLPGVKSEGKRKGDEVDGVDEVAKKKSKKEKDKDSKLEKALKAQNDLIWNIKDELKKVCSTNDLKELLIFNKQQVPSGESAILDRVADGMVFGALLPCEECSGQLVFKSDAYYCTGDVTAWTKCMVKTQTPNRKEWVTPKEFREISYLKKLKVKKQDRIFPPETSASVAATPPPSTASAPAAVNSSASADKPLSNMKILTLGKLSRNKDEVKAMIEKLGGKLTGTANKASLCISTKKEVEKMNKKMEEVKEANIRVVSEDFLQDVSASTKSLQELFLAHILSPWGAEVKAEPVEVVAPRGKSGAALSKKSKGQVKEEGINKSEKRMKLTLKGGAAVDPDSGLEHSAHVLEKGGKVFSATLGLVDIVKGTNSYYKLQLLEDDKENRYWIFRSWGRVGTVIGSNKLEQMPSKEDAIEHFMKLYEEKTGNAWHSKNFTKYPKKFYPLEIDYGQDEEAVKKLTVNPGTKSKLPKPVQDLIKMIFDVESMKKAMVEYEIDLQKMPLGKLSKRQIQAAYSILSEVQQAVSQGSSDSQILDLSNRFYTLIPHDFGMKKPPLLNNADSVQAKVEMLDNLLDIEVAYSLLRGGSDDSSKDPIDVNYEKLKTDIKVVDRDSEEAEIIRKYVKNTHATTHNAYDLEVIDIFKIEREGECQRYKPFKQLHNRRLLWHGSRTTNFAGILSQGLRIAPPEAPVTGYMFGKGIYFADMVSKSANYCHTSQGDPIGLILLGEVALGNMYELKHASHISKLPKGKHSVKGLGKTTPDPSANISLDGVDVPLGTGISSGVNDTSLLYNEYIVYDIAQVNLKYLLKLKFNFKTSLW

On to `Nc1cccc2c(=O)[nH]ccc12`, for which the IC50 is 1800 nM.
